Source: US20230210871A1 (THE LIMITED COMPANY RESEARCH AND DEVELOPMENT COMPANY …, priority 2017, published 2023)

Molecular target: BSA glycation (Bos taurus, UniProt P02769)
Test: Determination of antiglycation activity (BSA glycation by glucose, fluorescence of glycated BSA)
Type: biochemical, bovine
Settings: for The average concentration of AGEs in the sample at a given concentration of the drug (Δ %, M ± m): BSA 1 mg/ml, glucose 500 mM, pH 7.4, 24 hours at 60° C
Procedure: The reaction mixture contains solutions of bovine serum albumin (1 mg/ml) and glucose (500 mM) in phosphate buffer (pH=7.4). To prevent bacterial growth, sodium azide in a final concentration of 0.02% is added to the buffer solution. All substances are dissolved in dimethyl sulfoxide (DMSO). […] All experimental samples are incubated for 24 hours at 60° C. At the end of the incubation period, specific fluorescence of glycated bovine serum albumin (BSA) is determined using an F-7000 spectrofluorimeter (Hitachi, Japan) at an excitation wavelength of 370 nm and an emission wavelength of 440 nm.
The calculation of the IC50 indicator is carried out by the method of regression analysis (Table 2).

Sequence of BSA glycation (P02769 25-607): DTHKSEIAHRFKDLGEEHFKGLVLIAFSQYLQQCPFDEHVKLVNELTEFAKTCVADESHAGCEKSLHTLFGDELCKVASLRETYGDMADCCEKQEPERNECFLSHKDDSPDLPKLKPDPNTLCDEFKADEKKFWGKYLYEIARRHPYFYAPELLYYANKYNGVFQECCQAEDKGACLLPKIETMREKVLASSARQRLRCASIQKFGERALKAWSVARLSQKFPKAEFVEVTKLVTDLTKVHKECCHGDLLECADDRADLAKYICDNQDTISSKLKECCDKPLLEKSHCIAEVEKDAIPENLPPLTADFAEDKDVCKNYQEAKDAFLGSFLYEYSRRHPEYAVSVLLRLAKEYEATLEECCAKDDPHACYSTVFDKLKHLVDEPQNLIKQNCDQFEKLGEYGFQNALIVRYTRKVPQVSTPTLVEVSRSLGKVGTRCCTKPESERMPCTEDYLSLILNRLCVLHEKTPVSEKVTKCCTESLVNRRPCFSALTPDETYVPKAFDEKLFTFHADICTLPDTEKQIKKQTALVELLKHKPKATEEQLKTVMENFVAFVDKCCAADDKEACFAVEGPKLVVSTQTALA

## N=C(N)NN [Aminoguanidine, aminoguanidine]
Calculated by regression analysis
  IC50: 765 µM
Drug concentration 3*10^−4 mol
  The average concentration of AGEs in the sample at a given concentration of the drug (Δ %, M ± m): 50.25 ± 1.08 Δ %
Drug concentration 3*10^−5 mol
  The average concentration of AGEs in the sample at a given concentration of the drug (Δ %, M ± m): 19.14 ± 2.24 Δ %
Drug concentration 10^−3 mol
  The average concentration of AGEs in the sample at a given concentration of the drug (Δ %, M ± m): 58.08 ± 0.72 Δ %
Drug concentration 10^−4 mol
  The average concentration of AGEs in the sample at a given concentration of the drug (Δ %, M ± m): 38.75 ± 1.52 Δ %
Drug concentration 10^−5 mol
  The average concentration of AGEs in the sample at a given concentration of the drug (Δ %, M ± m): 3.53 ± 2.31 Δ %
